# Experimental data: patent US20160297851A1, “BROAD SPECTRUM […]” (priority 2012, published 2016)
# Read-outs that look alike come from different tables or passages of the source.
# Columns and labels:
# [1] = system: wild type S. epidermidis RP62A; test: microbe, parasite or virus in culture; format: cell-based, Staphylococcus epidermidis; conditions: for MIC: Sensitive strain (SPase without the resistance-conferring Pro)
# [2] = system: lepB(P29S) S. aureus 8325; test: microbe, parasite or virus in culture; format: cell-based, Staphylococcus aureus; conditions: Table 3, P3 position derivatives; unit not given
# [3] = system: lepB(P84L) E. coli MG1655; test: microbe, parasite or virus in culture; format: cell-based, Escherichia coli; conditions: Table 3, P3 position derivatives; unit not given
# [4] = system: lepB(P84L) P. aeruginosa PAO1; test: microbe, parasite or virus in culture; format: cell-based, Pseudomonas aeruginosa
# [5] = system: spsB(S29P) S. epidermidis RP62A; test: microbe, parasite or virus in culture; format: cell-based, Staphylococcus epidermidis
# [6] = system: wild type P. aeruginosa PAO1; test: microbe, parasite or virus in culture; format: cell-based, Pseudomonas aeruginosa
# [7] = system: S. epidermidis PAS9002 (SPase S31P); format: cell-based, Staphylococcus epidermidis; conditions: Ser to Pro mutation at position 31 of SpsIB
# [8] = system: Brevibacillus brevis ATCC 8246; test: microbe, parasite or virus in culture; format: cell-based; conditions: ATCC8246
# [9] = system: Rhodococcus equi ATCC 6939; test: microbe, parasite or virus in culture; format: cell-based; conditions: Rhodococcus (subgen. Prescottella) equi, ATCC6939
# [10] = system: Rhodococcus opacus DSM 1069; test: microbe, parasite or virus in culture; format: cell-based
# [11] = system: Streptococcus agalactiae COH-1; test: microbe, parasite or virus in culture; format: cell-based; conditions: Streptococcus agalactiae, COH1
# [12] = system: Streptococcus pneumoniae R800; test: microbe, parasite or virus in culture; format: cell-based
# [13] = system: Corynebacterium efficiens DSM 44549; test: microbe, parasite or virus in culture; format: cell-based
# [14] = system: Corynebacterium glutamicum DSM 44475; test: microbe, parasite or virus in culture; format: cell-based; conditions: DSM44475
# [15] = system: Lactococcus lactis; test: microbe, parasite or virus in culture; format: cell-based; conditions: several values = different isolates/subspecies
# [16] = system: Staphylococcus haemolyticus; test: microbe, parasite or virus in culture; format: cell-based
# [17] = system: Helicobacter pylori SS1; test: microbe, parasite or virus in culture; format: cell-based; conditions: amount for a 1000-fold decrease in viable cells
# [18] = system: Chlamydia trachomatis; test: microbe, parasite or virus in culture; format: cell-based; conditions: eradication from human HeLa 229 cells, 24 hours
# [19] = system: Rhodococcus erythropolis; test: microbe, parasite or virus in culture; format: cell-based
# [20] = system: Enterococcus faecalis; test: microbe, parasite or virus in culture; format: cell-based
# [21] = system: Bacillus subtilis 168; test: microbe, parasite or virus in culture; format: cell-based
# [22] = system: Klebsiella pneumoniae ATCC 43816; test: microbe, parasite or virus in culture; format: cell-based; conditions: ATCC43816
# [23] = system: Lactobacillus gasseri ATCC 19992; test: microbe, parasite or virus in culture; format: cell-based; conditions: ATCC19992
# [24] = system: Clostridium difficile; test: microbe, parasite or virus in culture; format: cell-based; conditions: Clostridioides difficile
# [25] = system: Clostridium bolteae; test: microbe, parasite or virus in culture; format: cell-based; conditions: Enterocloster bolteae
# [26] = system: Clostridium perfringens; test: microbe, parasite or virus in culture; format: cell-based
# [27] = system: Bacteroides fragilis; test: microbe, parasite or virus in culture; format: cell-based
# [28] = system: Prevotella copris; test: microbe, parasite or virus in culture; format: cell-based
# [29] = system: Staphylococcus aureus; format: cell-based; conditions: several values = heterogeneity within different strains
# [30] = system: S. aureus COL; test: microbe, parasite or virus in culture; format: cell-based; conditions: Staphylococcus aureus
# [31] = system: E. coli strains harboring the indicated amino acid at SPase residue 84; test: microbe, parasite or virus in culture; format: cell-based; conditions: Escherichia coli
# [32] = system: E. coli and P. aeruginosa serine mutants; test: MIC after permeabilizing with polymyxin B nonapeptide; format: cell-based
# [33] = system: human HeLa 229 cells; conditions: none observed up to the highest concentration examined
# [34] = target: truncated wild type E. coli SPase (Escherichia coli, UniProt P00803); test: Equilibrium binding, arylomycin fluorescence; conditions: micelles; average of three independent experiments
# [35] = target: P84S variant of truncated E. coli SPase (Escherichia coli, UniProt P00803, P84S); test: Equilibrium binding, arylomycin fluorescence; conditions: micelles; average of three independent experiments
# [36] = target: full-length wild type S. aureus SPase (Pro-variant) (Staphylococcus aureus, UniProt P0A070); test: Equilibrium binding, arylomycin fluorescence
# [37] = target: full-length P29S mutant S. aureus SPase (Ser-variant) (Staphylococcus aureus, UniProt P0A070, P29S); test: Equilibrium binding, arylomycin fluorescence
# [38] = Staphylococcus epidermidis, read-out: MIC
# [39] = Table 3, P3 position derivatives, unit not given
smiles,measurement,setting,value
"CCCCCCCCCCCCCCCC(=O)N(C)[C@H](CO)C(=O)N[C@H](C)C(=O)NCC(=O)N(C)[C@@H]1C(=O)N[C@@H](C)C(=O)N[C@H](C(=O)O)Cc2ccc(O)c(c2)-c2cc1ccc2O [Arylomycin C16, arylomycin C16]",MIC,[1],0.25 µg/mL
same,MIC,[1]; listed as arylomycin C16,0.25 µg/mL
same,MIC,[1]; [38],0.5 µg/mL
same,minimal inhibitory concentration (MIC),[1]; [39],0.25
same,minimal inhibitory concentration (MIC),[2],4
same,minimal inhibitory concentration (MIC),[3],2
same,MIC,"[4]; Pseudomonas aeruginosa, PAO1, Sensitive (genetically sensitized) strain, read-out: MIC",8 µg/mL
same,minimal inhibitory concentration (MIC),[4]; [39],4
same,fold elevated MIC compared to the wild type strain,[5]; Ser to Pro mutation at position 29 of SpsIB,32 fold
same,MIC,[5]; [38],8 µg/mL
same,MIC,"[6]; Pseudomonas aeruginosa, PAO1, Resistant strain (wild type), read-out: MIC",> 64 µg/mL
same,MIC,[6]; Resistant strain (wild type),>128 µg/mL
same,fold elevated MIC compared to the wild type strain,[7],greater than 256 fold
same,MIC,[8],> 64 µg/mL
same,MIC,[9],16 µg/mL
same,MIC,[10],2 µg/mL
same,MIC,"[10]; Rhodococcus opacus, DSM1069, read-out: MIC",1 µg/mL
same,MIC,[11],> 128 µg/mL
same,MIC,[12],16 µg/mL
same,MIC,"[12]; Streptococcus pneumoniae, R800, read-out: MIC",8 µg/mL
same,MIC,[12]; listed as arylomycin A-C16,8 µg/mL
same,MIC,[13],16 µg/mL
same,MIC,[14],2 µg/mL
same,MIC,[15],16 µg/mL
same,MIC,[16],2 µg/mL
same,MIC,"[17]; Helicobacter pylori, SS1, read-out: MIC",4 µg/mL
same,MIC,[17],4 µg/mL
same,MIC,[18],6 µg/mL
same,MIC,[19],16 µg/mL
same,MIC,[20],> 64 µg/mL
same,MIC,[21],> 128 µg/mL
same,MIC,[22],> 128 µg/mL
same,MIC,[23],> 128 µg/mL
same,MIC,[24],> 16 µg/mL
same,MIC,[25],> 16 µg/mL
same,MIC,[26],> 16 µg/mL
same,MIC,[27],> 16 µg/mL
same,MIC,[28],> 16 µg/mL
same,MIC,[29],16 to 32 µg/mL
same,MIC,[30],12 µg/mL
same,MIC,[31]; 'Phe or His' variant (temperature sensitive),2 µg/mL
same,MIC,[31]; His variant (temperature sensitive),4 µg/mL
same,MIC,[31]; Pro at SPase residue 84,> 256 µg/mL
same,MIC,[31]; all of the other amino acids at residue 84,≤ 16 µg/mL
same,fold decrease of MIC on permeabilization,[32],≤ 4 fold
same,concentration with adverse effects on the human cells,[33],> 20000 ng/mL
same,Kd,[34],979 ± 69 nM
same,Kd,[35],39 ± 15 nM
same,Kd,[36],1280 ± 278 nM
same,Kd,[37],130 ± 53 nM
